What was measured:
cocklebur = experiment: Test B pre/postemergence cocklebur; assay type: in vivo, Xanthium strumarium
How it was run: (§1)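 Test chemicals in a non-phytotoxic solvent mixture with surfactant were sprayed preemergence onto planted seeds and postemergence onto plants 2 to 18 cm tall (1- to 4-leaf stage). After twelve to sixteen days in a greenhouse, injury was visually rated against untreated controls from 0 (no effect) to 10 (complete control).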

rape = experiment: Test B pre/postemergence rape; assay type: in vivo, Brassica napus
How it was run: as §1

sugar beet = experiment: Test B pre/postemergence sugar beet; assay type: in vivo, Beta vulgaris; conditions: for Sugarbeets plant response rating (0 to 10 scale): 0 is no effect
How it was run: as §1

bamyardgrass = experiment: Test B flood test barnyardgrass; assay type: in vivo, Echinochloa crus-galli
How it was run: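 Each value is a visual injury score relative to controls, with 10 meaning complete control and 0 no effect. Evaluation took place twelve to sixteen days after the 2-leaf-stage plants were treated and kept in the greenhouse.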

common pursiane = experiment: Test D common purslane; assay type: in vivo, Portulaca oleracea
How it was run: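 Weed seeds planted in sandy loam; species kept apart in individual pots or compartments. Preemergence tests: treatment to soil surface within one day. Greenhouse growth, then visual injury scoring at 14–21 days (0–100).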

winter wheat [1] = experiment: Test E winter wheat; assay type: in vivo, Triticum aestivum; conditions: Postemergence
How it was run: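 For postemergence, application to 1- to 4-leaf plants growing in a 60:40 sandy loam–potting mix substrate. Formulation: non-phytotoxic solvent mixture plus surfactant. Untreated controls served as the reference for the visual rating after ~21–28 days.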

blackgrass = experiment: Test E blackgrass; assay type: in vivo, Alopecurus myosuroides; conditions: Preemergence
green foxtail = experiment: Test E green foxtail; assay type: in vivo, Setaria viridis; conditions: Preemergence
Italian ryegrass = experiment: Test E Italian ryegrass; assay type: in vivo, Lolium multiflorum; conditions: Preemergence
winter wheat [2] = experiment: Test E winter wheat; assay type: in vivo, Triticum aestivum; conditions: Preemergence
wild oat = experiment: Test E wild oat; assay type: in vivo, Avena fatua; conditions: Preemergence
winter barley = experiment: Test E winter barley; assay type: in vivo, Hordeum vulgare; conditions: Preemergence
[3] = Postemergence, Rate 125 g/ha, scale of 0 to 10 where 0 is no effect and 10 is complete control
[4] = Postemergence, Rate 250 g/ha, scale 0 to 10, 0 no effect, 10 complete control
[5] = Preemergence, Rate 62 g/ha, scale 0 to 10 (0 no effect, 10 complete control)
[6] = Preemergence, Rate 125 g/ha, scale 0 to 10 (0 no effect, 10 complete control)
[7] = Preemergence, Rate 250 g/ha, scale of 0 to 10 where 0 is no effect and 10 is complete control
[8] = Preemergence, Rate 500 g/ha, scale 0 to 10 (0 no effect, 10 complete control)
[9] = Rate 62 g/ha, Postemergence, scale of 0 to 10 where 0 is no effect and 10 is complete control
[10] = Rate 500 g/ha, Postemergence, scale 0 to 10, 0 no effect, 10 complete control
[11] = Preemergence, Rate 125 g/ha, 10 is complete control
[12] = Rate 250 g/ha, Postemergence, scale 0 to 10, 0 is no effect, 10 is complete control
[13] = Rate 500 g/ha, listed under Postemergence (flood test species), scale 0 to 10, 0 no effect, 10 complete control
[14] = Rate 64 g/ha, Preemergence; 0 to 100 scale, 0 no injury, 100 complete control
[15] = Rate 125 g/ha, Preemergence; 0 to 100 scale, 0 no injury, 100 complete control
[16] = Rate 500 g/ha; Preemergence; 0 to 100 scale
[17] = Rate 62 g/ha, 0 to 100 scale, 0 no effect, 100 complete control
[18] = Rate 125 g/ha, 0 to 100 scale (0 no effect, 100 complete control)
[19] = Preemergence, Rate 250 g/ha, scale 0 to 10, 0 is no effect, 10 is complete control
[20] = Rate 500 g/ha, Postemergence, scale 0 to 10
[21] = Rate 31 g/ha, 0 to 100 scale, 0 no effect, 100 complete control

CCn1c(=O)on(C(=O)N(c2ccccc2)C(C)C)c1=O [Compound 117]
Cocklebur plant response rating (cocklebur; [3]): 0
Cocklebur plant response rating (cocklebur; [4]): 0
Cocklebur plant response rating (cocklebur; [5]): 0
Plant response rating, Cocklebur (cocklebur; [6]): 0
Plant response rating, Cocklebur (cocklebur; [7]): 0
Cocklebur plant response rating (cocklebur; [8]): 0
Cocklebur plant response rating (cocklebur; [9]): 0
Cocklebur plant response rating (cocklebur; [10]): 1
Rape plant response rating (rape; [3]): 0
Rape plant response rating (rape; [4]): 2
Rape plant response rating (rape; [5]): 6
Plant response rating, Rape (rape; [6]): 10
Plant response rating, Rape (rape; [7]): 10
Rape plant response rating (rape; [8]): 10
Rape plant response rating (rape; [9]): 0
Rape plant response rating (rape; [10]): 6
Sugarbeets plant response rating (sugar beet; [3]): 0
Sugarbeets plant response rating (sugar beet; [5]): 0
Sugarbeets plant response rating (0 to 10 scale) (sugar beet; [11]): 8
Plant response rating, Sugarbeets (sugar beet; [7]): 9
Sugarbeets plant response rating (sugar beet; [8]): 10
Sugarbeets plant response rating (sugar beet; [9]): 0
Plant response rating, Sugarbeets (sugar beet; [12]): 3
Sugarbeets plant response rating (sugar beet; [10]): 7
Barnyardgrass plant response rating (bamyardgrass; Postemergence, Rate 62 g/ha, scale 0 to 10, 0 is no effect, 10 is complete control): 0
Barnyardgrass plant response rating (bamyardgrass; Rate 125 g/ha, Postemergence section (flood test species), scale 0 to 10, 0 no effect, 10 complete control): 0
Barnyardgrass plant response rating (bamyardgrass; Rate 250 g/ha, headed Pre-emergence (flood test species), scale 0 to 10 (0 no effect, 10 complete control)): 0
Plant response rating, Barnyardgrass (bamyardgrass; Rate 500 g/ha, headed Pre-emergence (flood test species), scale 0 to 10 (0 no effect, 10 complete control)): 0
Barnyardgrass plant response rating (bamyardgrass; [13]): 3
Barnyardgrass plant response rating (bamyardgrass; Rate 1000 g/ha, Pre-emergence (as headed), scale 0 to 10): 0
Barnyardgrass plant response rating (bamyardgrass; Rate 2000 g/ha, Pre-emergence (as headed), scale 0 to 10, 0 no effect, 10 complete control): 3
Barnyardgrass plant response rating (bamyardgrass; flood test, listed under Postemergence, Rate 250 g/ha, scale 0 to 10, 0 no effect, 10 complete control): 2
Plant response rating, C. purslane (common pursiane; [14]): 0
Plant response rating, C. purslane (common pursiane; [15]): 0
Plant response rating, C. purslane (common pursiane; Rate 500 g/ha, Preemergence; 0 to 100 scale): 65
Plant response rating, C. purslane (common pursiane; [16]): 0
Plant response rating, Wheat (winter) (winter wheat [1]; Rate 62 g/ha, 0 to 100 scale): 0
Plant response rating, Wheat (winter) (winter wheat [1]; Rate 125 g/ha, 0 to 100 scale): 10
Plant response rating, Wheat (winter) (winter wheat [1]; Rate 250 g/ha, 0 to 100 scale (0 no effect, 100 complete control)): 25
Plant response rating, Blackgrass (blackgrass; [17]): 50
Plant response rating, Blackgrass (blackgrass; [18]): 50
Plant response rating, Blackgrass (blackgrass; Rate 250 g/ha, 0 to 100 scale): 60
Plant response rating, Green foxtail (green foxtail; [17]): 50
Plant response rating, Green foxtail (green foxtail; [18]): 60
Plant response rating, Green foxtail (green foxtail; Rate 250 g/ha, 0 to 100 scale): 80
Plant response rating, I. Ryegrass (Italian ryegrass; [17]): 50
Plant response rating, I. Ryegrass (Italian ryegrass; [18]): 45
Plant response rating, I. Ryegrass (Italian ryegrass; Rate 250 g/ha, 0 to 100 scale): 85
Plant response rating, Wheat (winter) (winter wheat [2]; [17]): 30
Plant response rating, Wheat (winter) (winter wheat [2]; [18]): 60
Plant response rating, Wheat (winter) (winter wheat [2]; Rate 250 g/ha, 0 to 100 scale): 90
Plant response rating, Wild oat (wild oat; [17]): 20
Plant response rating, Wild oat (wild oat; [18]): 20
Plant response rating, Barley (winter) (winter barley; [17]): 25
Plant response rating, Barley (winter) (winter barley; [18]): 20
Plant response rating, Barley (winter) (winter barley; Rate 250 g/ha, 0 to 100 scale): 30

C=CCn1c(=O)on(C(=O)N(c2ccc(F)cc2F)C(C)C)c1=O [Compound 151]
Cocklebur plant response rating (cocklebur; [3]): 0
Cocklebur plant response rating (cocklebur; [5]): 0
Cocklebur plant response rating (cocklebur; [19]): 0
Cocklebur plant response rating (cocklebur; [8]): 0
Cocklebur plant response rating (cocklebur; [9]): 0
Plant response rating, Cocklebur (cocklebur; [12]): 2
Cocklebur plant response rating (cocklebur; [20]): 2
Rape plant response rating (rape; [3]): 0
Rape plant response rating (rape; [5]): 2
Rape plant response rating (0 to 10 scale) (rape; Preemergence, Rate 125 g/ha, 0 is no effect, 10 is complete control): 8
Rape plant response rating (rape; [19]): 10
Rape plant response rating (rape; [8]): 10
Rape plant response rating (rape; [9]): 0
Plant response rating, Rape (rape; [12]): 0
Rape plant response rating (rape; [20]): 2
Sugarbeets plant response rating (sugar beet; [3]): 3
Sugarbeets plant response rating (sugar beet; [5]): 1
Sugarbeets plant response rating (0 to 10 scale) (sugar beet; [11]): 8
Sugarbeets plant response rating (sugar beet; [19]): 10
Sugarbeets plant response rating (sugar beet; [8]): 10
Sugarbeets plant response rating (sugar beet; [9]): 2
Plant response rating, Sugarbeets (sugar beet; [12]): 3
Sugarbeets plant response rating (sugar beet; [20]): 3
Barnyardgrass plant response rating (bamyardgrass; Postemergence (flood test species), Rate 125 g/ha, scale of 0 to 10 where 0 is no effect and 10 is complete control): 0
Barnyardgrass plant response rating (bamyardgrass; Rate 62 g/ha, Postemergence section, flood test species, scale of 0 to 10 where 0 is no effect and 10 is complete control): 0
Plant response rating, Barnyardgrass (bamyardgrass; Rate 250 g/ha, Postemergence (flood test), scale 0 to 10, 0 is no effect, 10 is complete control): 0
Barnyardgrass plant response rating (bamyardgrass; [13]): 8
Plant response rating, C. purslane (common pursiane; Rate 16 g/ha; Preemergence; 0 to 100 scale, 0 no injury, 100 complete control): 0
Plant response rating, C. purslane (common pursiane; Rate 32 g/ha; Preemergence; 0 to 100 scale, 0 no injury, 100 complete control): 0
Plant response rating, C. purslane (common pursiane; [14]): 0
Plant response rating, C. purslane (common pursiane; [15]): 0
Plant response rating, C. purslane (common pursiane; Rate 250 g/ha; Preemergence; 0 to 100 scale): 0
Plant response rating, C. purslane (common pursiane; [16]): 0
Plant response rating, Wheat (winter) (winter wheat [1]; [21]): 10
Plant response rating, Wheat (winter) (winter wheat [1]; Rate 62 g/ha, 0 to 100 scale): 10
Plant response rating, Wheat (winter) (winter wheat [1]; Rate 125 g/ha, 0 to 100 scale): 70
Plant response rating, Blackgrass (blackgrass; [21]): 30
Plant response rating, Blackgrass (blackgrass; [17]): 45
Plant response rating, Blackgrass (blackgrass; [18]): 75
Plant response rating, Green foxtail (green foxtail; [21]): 20
Plant response rating, Green foxtail (green foxtail; [17]): 30
Plant response rating, Green foxtail (green foxtail; [18]): 80
Plant response rating, I. Ryegrass (Italian ryegrass; [21]): 20
Plant response rating, I. Ryegrass (Italian ryegrass; [17]): 30
Plant response rating, I. Ryegrass (Italian ryegrass; [18]): 50
Plant response rating, Wheat (winter) (winter wheat [2]; [21]): 0
Plant response rating, Wheat (winter) (winter wheat [2]; [17]): 0
Plant response rating, Wheat (winter) (winter wheat [2]; [18]): 10
Plant response rating, Wild oat (wild oat; [21]): 10
Plant response rating, Wild oat (wild oat; [17]): 10
Plant response rating, Wild oat (wild oat; [18]): 20
Plant response rating, Barley (winter) (winter barley; [21]): 10
Plant response rating, Barley (winter) (winter barley; [17]): 10
Plant response rating, Barley (winter) (winter barley; [18]): 20
